In ChEMBL document CHEMBL6177998, “Rational Design of Dual Degraders by Incorporating Molecular Glue Structural Features into PROTAC Degraders” (J Med Chem, 2025):
The source made the active and inactive calls. The rule behind the calls is not given here.

How the values were obtained:
[1] = test system: Protein cereblon/Androgen receptor (Homo sapiens), P10275+Q96SW2 [UNDEFINED MUTATION]; assay: PROTAC activity at CRBN/Androgen receptor splice variant 7 in human 22Rv1 cells assessed as induction of AR-V7 degradation at 0.1 uM incubated for 24 hrs by Western blot analysis relative to control; type: cell-based
Chain of Protein cereblon/Androgen receptor (Homo sapiens), P10275+Q96SW2 [UNDEFINED MUTATION] (Q96SW2 whole entry, looked up, change not shown, one chain of several, canonical isoform): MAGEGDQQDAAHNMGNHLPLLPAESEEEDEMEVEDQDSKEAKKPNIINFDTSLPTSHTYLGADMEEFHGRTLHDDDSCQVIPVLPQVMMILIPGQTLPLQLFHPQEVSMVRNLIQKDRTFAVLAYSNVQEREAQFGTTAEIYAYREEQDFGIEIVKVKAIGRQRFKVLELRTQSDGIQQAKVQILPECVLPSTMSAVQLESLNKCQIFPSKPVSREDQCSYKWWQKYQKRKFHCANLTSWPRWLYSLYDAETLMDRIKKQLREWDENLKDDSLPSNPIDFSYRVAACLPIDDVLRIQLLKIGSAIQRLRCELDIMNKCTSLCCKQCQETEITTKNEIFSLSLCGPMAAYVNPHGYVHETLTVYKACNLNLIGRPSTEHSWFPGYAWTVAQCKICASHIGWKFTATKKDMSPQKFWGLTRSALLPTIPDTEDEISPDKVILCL

[2] = target: T1, Protein cereblon/Androgen receptor (Homo sapiens, UniProt P10275+Q96SW2); assay: PROTAC activity at CRBN/AR in human VCaP cells assessed as induction of AR degradation at 0.1 uM incubated for 24 hrs by Western blot analysis relative to control; type: cell-based
Target sequence in this assay (Q96SW2 whole entry, looked up, one chain of several): as the sequence (Q96SW2 whole entry, looked up, change not shown, one chain of several, canonical isoform) above

[3] = target: T2, Protein cereblon/Eukaryotic peptide chain release factor GTP-binding subunit ERF3A (Homo sapiens, UniProt Q96SW2+P15170); assay: Molecular glue activity at CRBN/GSPT1 in human 22Rv1 cells assessed as induction of GSPT1 degradation at 0.01 uM incubated for 24 hrs by Western blot analysis relative to control; type: cell-based
T2 sequence (P15170 whole entry, looked up): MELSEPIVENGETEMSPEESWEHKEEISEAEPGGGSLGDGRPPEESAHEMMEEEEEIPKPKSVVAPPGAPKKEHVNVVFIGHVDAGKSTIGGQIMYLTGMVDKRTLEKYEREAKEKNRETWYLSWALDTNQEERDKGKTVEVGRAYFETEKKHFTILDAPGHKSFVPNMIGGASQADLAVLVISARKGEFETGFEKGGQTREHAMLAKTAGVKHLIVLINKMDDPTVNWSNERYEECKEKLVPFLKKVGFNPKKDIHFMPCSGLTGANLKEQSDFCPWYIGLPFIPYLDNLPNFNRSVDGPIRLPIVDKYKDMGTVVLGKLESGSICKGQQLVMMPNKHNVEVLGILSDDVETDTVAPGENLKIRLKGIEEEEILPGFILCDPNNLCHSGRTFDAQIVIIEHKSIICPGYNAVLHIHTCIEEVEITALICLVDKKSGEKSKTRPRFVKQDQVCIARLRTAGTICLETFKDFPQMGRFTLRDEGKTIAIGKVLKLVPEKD
T2 sequence (Q96SW2 whole entry, looked up): as the sequence (Q96SW2 whole entry, looked up, change not shown, one chain of several, canonical isoform) above

[4] = target: T1, Protein cereblon/Androgen receptor; assay: PROTAC activity at CRBN/AR in human 22Rv1 cells assessed as induction of AR degradation at 20 nM incubated for 2 hrs by Western blot analysis (reference value: 0 %); type: cell-based
Target sequence in this assay (Q96SW2 whole entry, looked up, one chain of several): as the sequence (Q96SW2 whole entry, looked up, change not shown, one chain of several, canonical isoform) above

[5] = target: T2, Protein cereblon/Eukaryotic peptide chain release factor GTP-binding subunit ERF3A; assay: Molecular glue activity at CRBN/GSPT1 in human 22Rv1 cells assessed as induction of GSPT1 degradation at 20 nM incubated for 2 hrs by Western blot analysis (reference value: 0 %); type: cell-based
[6] = test system: Protein cereblon/Androgen receptor (Homo sapiens), P10275+Q96SW2 [UNDEFINED MUTATION]; assay: (§1) PROTAC activity at CRBN/Androgen receptor splice variant 7 in human VCaP cells assessed as induction of AR-V7 degradation incubated for 24 hrs by Western blot analysis; type: cell-based
[7] = target: T1, Protein cereblon/Androgen receptor; assay: as §1; type: cell-based
Target sequence in this assay (Q96SW2 whole entry, looked up, change not shown, one chain of several): as the sequence (Q96SW2 whole entry, looked up, change not shown, one chain of several, canonical isoform) above

[8] = target: T2, Protein cereblon/Eukaryotic peptide chain release factor GTP-binding subunit ERF3A; assay: Molecular glue activity at CRBN/GSPT1 in human VCaP cells assessed as induction of GSPT1 degradation by measuring maximal efficacy incubated for 24 hrs by Western blot analysis relative to control; type: cell-based
[9] = target: T2, Protein cereblon/Eukaryotic peptide chain release factor GTP-binding subunit ERF3A; assay: Molecular glue activity at CRBN/GSPT1 in human 22Rv1 cells assessed as induction of GSPT1 degradation at 50 nM preincubated with MG132 followed by compound addition and measured after 12 hrs by Western blot analysis; type: cell-based
[10] = test system: Protein cereblon/Androgen receptor (Homo sapiens), P10275+Q96SW2 [UNDEFINED MUTATION]; assay: PROTAC activity at CRBN/Androgen receptor splice variant 7 in human VCaP cells assessed as induction of AR-V7 degradation at 50 nM preincubated with MG132 followed by compound addition and measured after 12 hrs by Western blot analysis; type: cell-based
[11] = target: T2, Protein cereblon/Eukaryotic peptide chain release factor GTP-binding subunit ERF3A; assay: Binding affinity to CRBN/GSPT1 in human 22Rv1 cells assessed as ternary complex formation incubated for 6 hrs by co-immunoprecipitation based Western blot analysis; type: cell-based
[12] = target: Protein cereblon/Zinc finger protein Helios (Homo sapiens) (UniProt Q96SW2+Q9UKS7); assay: Molecular glue activity at CRBN/IKZF2 in human 22Rv1 cells assessed as induction of IKZF2 degradation at 3 uM incubated for 6 hrs by Western blot analysis; type: cell-based
Chain of Protein cereblon/Zinc finger protein Helios (Homo sapiens) (Q96SW2 whole entry, looked up): as the sequence (Q96SW2 whole entry, looked up, change not shown, one chain of several, canonical isoform) above
Chain of Protein cereblon/Zinc finger protein Helios (Homo sapiens) (Q9UKS7 whole entry, looked up): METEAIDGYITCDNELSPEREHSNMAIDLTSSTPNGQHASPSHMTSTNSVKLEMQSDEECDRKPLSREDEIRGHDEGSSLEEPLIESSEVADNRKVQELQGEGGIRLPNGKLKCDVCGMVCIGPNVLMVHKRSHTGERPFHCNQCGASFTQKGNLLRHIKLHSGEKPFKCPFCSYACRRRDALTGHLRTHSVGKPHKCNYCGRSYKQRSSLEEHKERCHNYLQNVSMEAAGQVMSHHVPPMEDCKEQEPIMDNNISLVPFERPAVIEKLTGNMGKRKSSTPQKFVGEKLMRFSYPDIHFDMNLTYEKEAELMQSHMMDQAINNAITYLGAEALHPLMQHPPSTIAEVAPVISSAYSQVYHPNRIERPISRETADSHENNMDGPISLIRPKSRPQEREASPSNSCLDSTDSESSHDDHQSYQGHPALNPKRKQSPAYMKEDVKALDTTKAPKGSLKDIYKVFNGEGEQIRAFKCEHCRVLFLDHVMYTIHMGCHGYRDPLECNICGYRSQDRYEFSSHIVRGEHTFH

[13] = Selectivity ratio of IC50 for antiproliferative activity against AR-independent human DU-145 cells assessed as cell growth inhibition to IC50 for antiproliferative activity against AR-dependent human 22Rv1 cells assessed as cell growth inhibition; type: functional
[14] = test system: CWR22R; assay: Downregulation of RCC2 gene expression in human 22Rv1 cells at 3 nM incubated for 24 hrs by Volcano plot analysis; type: functional, cell-based
[15] = test system: CWR22R; assay: Upregulation of ribosome-related pathway gene expression in human 22Rv1 cells at 3 nM incubated for 24 hrs by GSEA analysis; type: functional, cell-based
[16] = target: T1, Protein cereblon/Androgen receptor; assay: PROTAC activity at CRBN/AR in human 22Rv1 cells assessed as decrease in PSA mRNA level at 1 to 3 nM incubated for 24 hrs by qRT-PCR analysis; type: cell-based; conditions: dose 1-3 nM
Target sequence in this assay (Q96SW2 whole entry, looked up, one chain of several): as the sequence (Q96SW2 whole entry, looked up, change not shown, one chain of several, canonical isoform) above

[17] = target: T1, Protein cereblon/Androgen receptor; assay: PROTAC activity at CRBN/AR in human 22Rv1 cells assessed as decrease in TMPRSS2 protein level incubated for 24 hrs by Western blot analysis; type: cell-based; conditions: dose 1-10 nM
Target sequence in this assay (Q96SW2 whole entry, looked up, one chain of several): as the sequence (Q96SW2 whole entry, looked up, change not shown, one chain of several, canonical isoform) above

[18] = target: T3, Androgen receptor (Homo sapiens, UniProt P10275); assay: Inhibition of wildtype AR (unknown origin) transcriptional activity transfected in HEK293T cells co-transfected with PSA-luciferase reporter and pRL-TK assessed as reduction in PSA-luciferase activity incubated for 24 hrs by luminescence based microplate reader analysis; type: cell-based
T3 sequence (P10275 whole entry): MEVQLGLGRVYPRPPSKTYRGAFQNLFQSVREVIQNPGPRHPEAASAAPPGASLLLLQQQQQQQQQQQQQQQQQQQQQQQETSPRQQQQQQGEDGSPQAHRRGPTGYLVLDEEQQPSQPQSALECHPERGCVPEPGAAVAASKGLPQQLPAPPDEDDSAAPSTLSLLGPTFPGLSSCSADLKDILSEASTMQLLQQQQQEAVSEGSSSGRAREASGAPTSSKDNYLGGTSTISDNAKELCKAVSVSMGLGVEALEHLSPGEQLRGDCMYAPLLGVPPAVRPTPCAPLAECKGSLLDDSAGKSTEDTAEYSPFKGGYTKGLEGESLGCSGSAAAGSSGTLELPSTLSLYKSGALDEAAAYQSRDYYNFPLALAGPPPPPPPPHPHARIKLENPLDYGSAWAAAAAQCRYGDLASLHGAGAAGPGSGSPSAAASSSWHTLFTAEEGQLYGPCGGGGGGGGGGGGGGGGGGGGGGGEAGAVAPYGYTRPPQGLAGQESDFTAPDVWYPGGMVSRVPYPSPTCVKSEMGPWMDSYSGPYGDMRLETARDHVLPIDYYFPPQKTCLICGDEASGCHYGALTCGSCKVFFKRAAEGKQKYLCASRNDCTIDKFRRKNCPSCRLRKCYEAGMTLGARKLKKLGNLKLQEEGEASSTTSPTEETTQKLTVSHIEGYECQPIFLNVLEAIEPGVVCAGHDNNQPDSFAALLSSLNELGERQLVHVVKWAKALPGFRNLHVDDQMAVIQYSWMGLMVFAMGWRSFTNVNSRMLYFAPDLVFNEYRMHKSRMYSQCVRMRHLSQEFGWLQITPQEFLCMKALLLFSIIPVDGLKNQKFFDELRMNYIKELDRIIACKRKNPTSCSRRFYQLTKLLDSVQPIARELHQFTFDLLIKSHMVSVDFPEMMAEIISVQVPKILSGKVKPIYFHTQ

[19] = test system: Protein cereblon/Androgen receptor (Homo sapiens), P10275+Q96SW2 [UNDEFINED MUTATION]; assay: PROTAC activity at CRBN/Androgen receptor splice variant 7 in human Enzalutamide-resistant LNCaP cells assessed as induction of AR-V7 degradation at 1 to 300 nM by Western blot analysis; type: cell-based; conditions: dose 1-300 nM
[20] = target: T2, Protein cereblon/Eukaryotic peptide chain release factor GTP-binding subunit ERF3A; assay: Molecular glue activity at CRBN/GSPT1 in human Enzalutamide-resistant LNCaP cells assessed as induction of GSPT1 degradation at 1 to 300 nM by Western blot analysis; type: cell-based; conditions: dose 1-300 nM
[21] = Half-life in male ICR mouse at 2 mg/kg, iv by LC-MS/MS analysis; type: ADME, organism-based; conditions: in vivo
[22] = AUC in male ICR mouse at 10 mg/kg, po by LC-MS/MS analysis; type: ADME, organism-based; conditions: in vivo
[23] = test system: LNCaP; assay: Antitumor activity against human LNCaP cells xenografted in NOD SCID male mouse model assessed as tumor growth inhibition at 20 mg/kg, po administered daily for 26 days relative to control; type: functional; conditions: 624 h, time 26 day, read-out: TGI

**Q.** Which Activity [1] does the source give for `COc1ccc(C(C)(C)c2cc(Cl)c(OCC3CCN(C(=O)CCCCCNc4ccc5c(c4)C(=O)N(C4CCC(=O)NC4=O)C5=O)CC3)c(C#N)c2)cc1` (stereo not drawn) here?
**A.** 76.7%

**Q.** What about the Activity [2] of the same compound?
**A.** 92.2%

**Q.** What about the Activity [3] of the same compound?
**A.** 93.9%

**Q.** And the Activity [4]?
**A.** 56.3%

**Q.** What about the Activity [5] of the same compound?
**A.** 74.6%

**Q.** And the Activity [6]?
**A.** Dose-dependent-effect

**Q.** What about the DC50 [7] of the same compound?
**A.** 2.5 nM

**Q.** And the Emax [8]?
**A.** 96%

**Q.** And the Activity [9]?
**A.** inactive

**Q.** And the Activity [10]?
**A.** inactive

**Q.** And the Activity [11]?
**A.** Active

**Q.** What about the Activity [12] of the same compound?
**A.** Moderate_effect

**Q.** And the “Ratio IC50” value [13]?
**A.** 802

**Q.** What about the Activity [14] of the same compound?
**A.** Active

**Q.** What about the Activity [15] of the same compound?
**A.** Active

**Q.** And the Activity [16]?
**A.** Active

**Q.** What about the Activity [17] of the same compound?
**A.** Dose-dependent-effect

**Q.** What about the IC50 [18] of the same compound?
**A.** 3.2 nM

**Q.** What about the Activity [19] of the same compound?
**A.** Active

**Q.** What about the Activity [20] of the same compound?
**A.** Active

**Q.** What about the half-life [21] of the same compound?
**A.** 54 min

**Q.** What about the AUC [22] of the same compound?
**A.** 1040 ng·h/mL

**Q.** And the inhibition in vivo at 20 mg/kg [23]?
**A.** 60%
